Measurements published in patent publication US20120316078A1, “METHODS AND MATERIALS FOR PRODUCING POLYPEPTIDES IN VITRO” (priority 2011, published 2012).

Molecular target: GFP (Aequorea victoria, UniProt P42212)
Settings: array of randomly generated peptides; GFP binding assay
Text: Peptide aptamers also can be selected using a peptide array containing randomly generated peptides (e.g., 10,000 randomly generated peptides) that are 10 to 35 amino acids (e.g., 15 to 25 or 20 amino acids) in length. The peptide array can be screened using a binding assay with the protein target (e.g., GFP or thioredoxin). For example, when a fluorescent protein such as GFP is the target, GFP-binding peptides can be directly identified through a fluorescent scanner after a GFP binding assay.

Row | Sequence | binding to GFP on peptide array (strong fluorescence spots)
1 | CSGFRAMWLYRNWESQVEAT [SEQ ID NO:2] | bind specifically to the GFP
2 | CSGPYGTHFMYKSGGWRAIY [SEQ ID NO:4] | bind specifically to the GFP
3 | CSGWNHVIYEGTRYNWFRDS [SEQ ID NO:3] | bind specifically to the GFP
